{"source": "patent US20130150399A1", "about": "“INHIBITORS OF THE UNFOLDED PROTEIN RESPONSE AND METHODS FOR THEIR USE” (The Board of Trustees of the Leland Stanford Junior …, priority 2006, published 2013)", "key": {"IRE1α": {"tested_on": "IRE1α", "experiment": "Western immunoblot of total IRE1α, HT1080 cells", "format": "cell-based, human", "details": "2.5 μM, 16 hours", "description": "(§1) Cells (2×10^6) were cultured in 10-cm dishes, collected using a cell scraper at 4° C., and lysed by addition of 150 μl cell lysis buffer [50 mM Tris pH 7.4, 150 mM NaCl, 10% glycerol, 0.5% Triton X-100. 0.5% NP-40, 2 mM Na3VO4, 20 mM beta-glycerophosphate, 10 mM NaF, 1 mM DTT, 1 mM PMSF). Lysates were centrifuged for 5 min at 10,000×g, and proteins (˜40 μg) were resolved by SDS-PAGE followed by semi-dry transfer to nitrocellulose membranes. Membranes were blocked in TBS-5% milk supplemented with 0.1% Tween-20. The blots were then probed overnight with relevant antibodies, washed, and incubated for 2 hours with species-specific secondary antibodies conjugated to horseradish peroxidase. After washing in block solution, immunoreactive material was detected by enhanced chemiluminescence (SuperSignal West Dura Extended, Pierce, Inc., Rockville, Ill.).\n(§2) HT1080 cells were exposed to DMSO vehicle (lane 1), irestatin 9389 (2.5 μM; lane 2) for 16 hours or Tm (5 μg/ml; lane 3) for 8 hours. Following treatments, cells were harvested, lysed, and analyzed by immunoblotting using anti-Grp78 antibody (top) or anti-actin (bottom) as a loading control. […] Cell lysates were analyzed by Western immunoblotting using anti-IRE1α (bottom) or anti-phospho-IRE1α antibodies (top). […] Lysates were analyzed by Western blot using antisera specific for phospho-JNK1 (top) or total JNK1 (bottom). […]"}, "phospho-JNK1": {"tested_on": "phospho-JNK1", "experiment": "Western blot of phospho-JNK1 under ER stress, HT1080 cells", "format": "cell-based, human", "details": "irestatins 2.5 μM, 2 hour preincubation; Tm 4 μg/ml, 1.5 hrs", "description": "as §1, §2"}, "His6-IRE1α-cyto": {"molecular_target": "T1, His6-IRE1α-cyto (Homo sapiens, UniProt O75460)", "T1 construct": "purified the full cytosolic portion of IRE1α (His6-IRE1α-cyto) containing both kinase and endonuclease domains; His6; made in house", "T1 sequence (O75460 465-977 limits assumed)": "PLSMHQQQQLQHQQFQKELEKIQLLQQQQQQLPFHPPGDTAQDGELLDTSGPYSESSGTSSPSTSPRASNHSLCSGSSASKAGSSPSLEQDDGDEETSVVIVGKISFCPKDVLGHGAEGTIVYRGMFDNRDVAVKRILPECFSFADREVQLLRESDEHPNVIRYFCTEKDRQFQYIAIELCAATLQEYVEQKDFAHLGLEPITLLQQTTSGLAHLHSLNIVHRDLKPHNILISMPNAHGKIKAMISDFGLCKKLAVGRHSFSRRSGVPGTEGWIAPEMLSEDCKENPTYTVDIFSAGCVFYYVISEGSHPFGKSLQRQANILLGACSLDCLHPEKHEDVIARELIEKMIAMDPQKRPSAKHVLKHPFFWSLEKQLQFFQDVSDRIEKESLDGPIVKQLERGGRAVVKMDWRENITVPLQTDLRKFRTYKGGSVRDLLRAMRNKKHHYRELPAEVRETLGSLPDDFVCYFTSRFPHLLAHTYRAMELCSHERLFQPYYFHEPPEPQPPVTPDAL", "experiment": "IRE1α endonuclease (in vitro ribonuclease) assay", "format": "biochemical", "details": "2.5 μM", "description": "The in vitro ribonuclease assays were carried out using purified IRE1α-cyto essentially as described. Gonzalez and Walter, Methods Mol Biol 160: 25-36 (2001); Gonzalez et al., Embo J 18: 3119-3132 (1999). For each reaction, 5 μg purified IRE1α-cyto was incubated with 300 ng of fluorescein-labeled RNA stem-loop substrate at 37° C. in a total volume of 300 μl. Aliquots (50 μl) were withdrawn at the indicated times and mixed with an equal volume of stop solution. Id. Reactions were analyzed by SDS-PAGE using 10-20% acrylamide gradient gels. The sequence for the hXBP-1 3′ RNA stem-loop substrate is as follows: • 5′[…] 3′ (SEQ ID NO: 8). […]\nHT1080 cells were exposed to DMSO vehicle (lane 1), irestatin 9389 (2.5 μM; lane 2) for 16 hours or Tm (5 μg/ml; lane 3) for 8 hours. Following treatments, cells were harvested, lysed, and analyzed by immunoblotting using anti-Grp78 antibody (top) or anti-actin (bottom) as a loading control. […] Cell lysates were analyzed by Western immunoblotting using anti-IRE1α (bottom) or anti-phospho-IRE1α antibodies (top). […] Lysates were analyzed by Western blot using antisera specific for phospho-JNK1 (top) or total JNK1 (bottom). […] F. Quantification of RNA cleavage kinetics. […] Samples were analyzed as in (E).\nNext we determined whether irestatin 9389 inhibited the endonuclease function of IRE1α. […]"}, "RNAse A": {"molecular_target": "T2, RNAse A (Bos taurus, UniProt P61823)", "T2 construct": "purchased Sigma", "T2 sequence (P61823 27-150)": "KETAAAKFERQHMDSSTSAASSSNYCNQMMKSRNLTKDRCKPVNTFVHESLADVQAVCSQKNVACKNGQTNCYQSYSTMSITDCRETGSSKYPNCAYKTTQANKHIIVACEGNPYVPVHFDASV", "experiment": "RNAse A activity assay", "format": "biochemical, bovine", "details": ">100-fold molar excess of irestatin 9389"}}}
{"smiles": "Cc1csc(NC(=O)CSc2nc3c(c(C(F)(F)F)c2C#N)CCC3)n1", "note": "[Compound 9389]", "values": [{"measurement": "total level of IRE1α", "setting": "IRE1α", "value": "no significant changes in the total level of IRE1α"}, {"measurement": "phosphorylation of JNK1 during Tm-induced ER stress", "setting": "phospho-JNK1", "value": "failed to block the phosphorylation of JNK1"}, {"measurement": "cleavage of XBP-1 target RNA by IRE1α endonuclease", "setting": "His6-IRE1α-cyto", "value": "strongly inhibited cleavage"}, {"measurement": "degradation of the XBP-1 3′ intronic loop by RNAse A", "setting": "RNAse A", "value": "failed to inhibit degradation"}]}
